Reference: patent US9751854B2 (Millennium Pharmaceuticals, Inc., priority 2014, dated 2017)
pIC50: −log10 of the molar value.

Target: human VPS34 (Homo sapiens (Human), UniProt Q8NEB9)
Test: Human VPS34 enzyme assay (Adapta TR-FRET ADP detection)
Format: biochemical
Conditions: IC50 range class

human VPS34, sequence (Q8NEB9 whole entry): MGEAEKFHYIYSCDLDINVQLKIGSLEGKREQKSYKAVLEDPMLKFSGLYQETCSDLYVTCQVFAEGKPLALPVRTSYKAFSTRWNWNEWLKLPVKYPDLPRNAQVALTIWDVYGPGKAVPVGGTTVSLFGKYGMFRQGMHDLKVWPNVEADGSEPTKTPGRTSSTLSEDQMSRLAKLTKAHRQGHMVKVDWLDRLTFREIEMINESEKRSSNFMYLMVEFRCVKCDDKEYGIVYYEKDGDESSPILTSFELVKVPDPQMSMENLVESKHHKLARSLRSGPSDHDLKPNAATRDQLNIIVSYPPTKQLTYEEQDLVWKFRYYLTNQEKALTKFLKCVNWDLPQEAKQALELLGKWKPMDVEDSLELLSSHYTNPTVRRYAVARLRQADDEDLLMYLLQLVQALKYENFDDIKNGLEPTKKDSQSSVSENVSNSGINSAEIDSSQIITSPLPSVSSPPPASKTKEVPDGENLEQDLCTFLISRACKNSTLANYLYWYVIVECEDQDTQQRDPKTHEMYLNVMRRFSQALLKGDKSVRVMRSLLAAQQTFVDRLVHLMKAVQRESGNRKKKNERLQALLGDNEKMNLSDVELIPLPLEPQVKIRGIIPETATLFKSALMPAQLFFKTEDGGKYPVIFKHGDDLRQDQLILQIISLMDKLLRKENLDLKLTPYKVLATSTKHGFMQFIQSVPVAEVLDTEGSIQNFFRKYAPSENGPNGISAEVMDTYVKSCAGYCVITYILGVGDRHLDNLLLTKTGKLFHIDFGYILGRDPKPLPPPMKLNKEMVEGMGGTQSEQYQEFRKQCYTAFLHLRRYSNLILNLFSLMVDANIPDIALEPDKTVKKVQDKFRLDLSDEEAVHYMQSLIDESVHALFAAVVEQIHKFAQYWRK

Compound | pIC50
CC(=O)Nc1cc(-c2cnc(C)c(NS(=O)(=O)c3ccc(C(F)(F)F)cc3)c2)ccn1 [Compound I-90, N-[6-methyl-5-({[4-trifluoromethyl)phenyl]sulfonyl}amino-3,4′-bipyridin-2′-yl]acetamide] | > 8.00
CC(=O)Nc1cc(-c2cnc(C)c(C(=O)N(C)c3ccc(F)cc3F)c2)ccn1 [Compound I-485, 2′-acetamido-N-(2,4-difluorophenyl)-N,6-dimethyl-3,4′-bipyridine-5-carboxamide] | 7.30 to 8.00
CC(=O)Nc1cc(-c2cnc(C)c(NS(=O)(=O)c3ccc(Cl)cc3Cl)c2)ccn1 [Compound I-30, N-(5-{[(2,4-dichlorophenyl)sulfonyl]amino}-6-methyl-3,4′-bipyridin-2′-yl)acetamide] | > 8.00
Cc1nc(Nc2cc(-c3cnc(C)c(NS(=O)(=O)N(C)C)c3)ccn2)ccc1C#N [Compound I-229, N-{2′-[(5-cyano-6-methylpyridin-2-yl)amino]-6-methyl-3,4′-bipyridin-5-yl}-N,N-dimethylsulfuric diamide] | > 8.00
CC(=O)Nc1cc(-c2cnc(N)c(N(C)S(C)(=O)=O)c2)ccn1 [Compound I-133, N-{6-amino-5-[methyl(methylsulfonyl)amino]-3,4′-bipyridin-2′-yl}acetamide] | > 8.00
CC(=O)Nc1cc(-c2cnc3ncn(CC4CC4)c3c2)ccn1 [Compound I-135, N-{4-[1-(cyclopropylmethyl)-1H-imidazo[4,5-b]pyridin-6-yl]pyridin-2-yl}acetamide] | < 7.00
COC(=O)Nc1cc(-c2cnc(N)c(S(=O)(=O)C(C)C)c2)ccn1 [Compound I-34, methyl [6-amino-5-(isopropylsulfonyl)-3,4′-bipyridin-2′-yl]carbamate] | > 8.00
Cc1nccc(Nc2cc(-c3cnc(C)c(C(=O)N4CCCCC4)c3)ccn2)n1 [Compound I-262, [6-methyl-2′-[(2-methylpyrimidin-4-yl)amino]-3,4′-bipyridin-5-yl](piperidin-1-yl)methanone] | 7.30 to 8.00
COc1ncc(-c2ccnc(NC(C)=O)c2)cc1NS(=O)(=O)N(C)C [Compound I-220, N-{5-[(dimethylsulfamoyl)amino]-6-methoxy-3,4′-bipyridin-2′-yl}acetamide] | 7.30 to 8.00
CCN(CC)S(=O)(=O)c1cc(-c2ccnc(NC(C)=O)c2)cnc1N [Compound I-124, N-[6-amino-5-(diethylsulfamoyl)-3,4′-bipyridin-2′-yl]acetamide] | > 8.00
CC(=O)Nc1cc(-c2cncc(S(=O)(=O)N(C)C)c2)ccn1 [Compound I-137, N-[5-(dimethylsulfamoyl)-3,4′-bipyridin-2′-yl]acetamide] | 7.30 to 8.00
CC(=O)Nc1cc(-c2cncc(N(C)C(=O)c3ccc(F)cc3F)c2)ccn1 [Compound I-397, N-(2′-acetamido-3,4′-bipyridin-5-yl)-2,4-difluoro-N-methylbenzamide] | 7.00 to 7.30
COc1ncc(-c2ccnc(Nc3ccnc(C)n3)c2)cc1S(=O)(=O)NC1CCC1 [Compound I-224, N-cyclobutyl-6-methoxy-2′-[(2-methylpyrimidin-4-yl)amino]-3,4′-bipyridine-5-sulfonamide] | 7.30 to 8.00
Cc1nccc(Nc2cc(-c3cnc(C)c(C(N)=O)c3)ccn2)n1 [Compound I-280, 6-methyl-2′-[(2-methylpyrimidin-4-yl)amino]-3,4′-bipyridine-5-carboxamide] | < 7.00
CC(=O)Nc1cc(-c2cnc(N)c(S(N)(=O)=O)c2)ccn1 [Compound I-61, N-(6-amino-5-sulfamoyl-3,4′-bipyridin-2′-yl)acetamide] | 7.30 to 8.00
COc1nccc(Nc2cc(-c3cnc(Cl)c(NS(=O)(=O)c4ccc(F)cc4F)c3C)ccn2)n1 [Compound I-225, N-{6-chloro-2′-[(2-methoxypyrimidin-4-yl)amino]-4-methyl-3,4′-bipyridin-5-yl}-2,4-difluorobenzenesulfonamide] | > 8.00
CC(=O)Nc1cc(-c2cncc(S(=O)(=O)NC34CC(C3)C4)c2)ccn1 [Compound I-190, N-[5-(bicyclo[1.1.1]pent-1-ylsulfamoyl)-3,4′-bipyridin-2′-yl]acetamide] | 7.30 to 8.00
CC(=O)Nc1cc(-c2cnc(C)c(NS(=O)(=O)c3ccc(Cl)cc3)c2)ccn1 [Compound I-154, N-(5-{[(4-chlorophenyl)sulfonyl]amino}-6-methyl-3,4′-bipyridin-2′-yl)acetamide] | > 8.00
CCOc1cc(-c2ccnc(Nc3ccnc(C)n3)c2)cnc1C [Compound I-479, 5-ethoxy-6-methyl-N-(2-methylpyrimidin-4-yl)-3,4′-bipyridin-2′-amine] | 7.30 to 8.00
COC(=O)Nc1cc(-c2cncc(C(=O)C3CC3)c2)ccn1 [Compound I-180] | 7.00 to 7.30
CC(=O)Nc1cc(-c2cncc(/C=C/C(=O)c3ccc(F)cc3)c2)ccn1 [Compound I-188, N-{5-[(1E)-3-(4-fluorophenyl)-3-oxoprop-1-en-1-yl]-3,4′-bipyridin-2′-yl}acetamide] | 7.00 to 7.30
CC(=O)Nc1cc(-c2cnc(C)c(NS(=O)(=O)c3ccc(C)cc3F)c2)c(C)cn1 [Compound I-130, N-(5-{[(2-fluoro-4-methylphenyl)sulfonyl]amino}-5′,6-dimethyl-3,4′-bipyridin-2′-yl)acetamide] | 7.00 to 7.30
Cc1c(-c2ccnc(NC(=O)C3CC3(F)F)c2)cnc(Cl)c1NS(=O)(=O)c1ccc(F)cc1F (stereo not drawn) [Compound I-254, N-(6-chloro-5-{[(2,4-difluorophenyl)sulfonyl]amino}-4-methyl-3,4′-bipyridin-2′-yl)-2,2-difluorocyclopropanecarboxamide] | 7.30 to 8.00
Cc1nccc(Nc2cc(-c3cncc(C(C)OCc4ccccn4)c3)ccn2)n1 (stereo not drawn) [Compound I-349, N-(2-methylpyrimidin-4-yl)-5-[1-(pyridin-2-ylmethoxy)ethyl]-3,4′-bipyridin-2′-amine] | 7.30 to 8.00
Cc1nccc(Nc2cc(-c3c[n+]([O-])c(Cl)c(NS(=O)(=O)c4ccc(F)cc4F)c3C)ccn2)n1 [Compound I-454, N-(2-chloro-4-methyl-5-{2-[(2-methylpyrimidin-4-yl)amino)pyridin-4-yl}-1-oxidopyridin-3-yl)-2,4-difluorobenzenesulfonamide] | > 8.00
CCc1ncc(-c2ccnc(NC(C)=O)c2)cc1NS(=O)(=O)c1ccc(F)cc1F [Compound I-201, N-(5-{[(2,4-difluorophenyl)sulfonyl]amino}-6-ethyl-3,4′-bipyridin-2′-yl)acetamide] | > 8.00
COC(=O)Nc1cc(-c2cnc3[nH]ncc3c2)ccn1 [Compound I-38, Methyl [4-(1H-pyrazolo[3,4-b]pyridin-5-yl)pyridin-2-yl]carbamate] | 7.30 to 8.00
Cc1nccc(Nc2cc(-c3cnc(C)c(N4CCCN(C)S4(=O)=O)c3)ccn2)n1 [Compound I-288, 6-methyl-5-(6-methyl-1,1-dioxido-1,2,6-thiadiazinan-2-yl)-N-(2-methylpyrimidin-4-yl)-3,4′-bipyridin-2′-amine] | 7.30 to 8.00
CNc1ncc(-c2ccnc(NC(C)=O)c2)c(C)c1S(=O)(=O)NC(C)(C)C [Compound I-436] | 7.00 to 7.30
CC(=O)Nc1cc(-c2cnc(C)c(S(=O)(=O)Nc3ccc(F)cc3F)c2)ccn1 [Compound I-353, N-(5-(N-(2,4-difluorophenyl)sulfamoyl)-6-methyl-[3,4′-bipyridin]-2′-yl)acetamide] | 7.30 to 8.00
